# System: BLM-induced pulmonary fibrosis in C57BL/6J mice
# Experiment: Bleomycin (BLM)-induced pulmonary fibrosis model, Example 4
# Format: in vivo
# Text: The bleomycin model of idiopathic fibrosis (IPF) is a well-characterized and currently an extensively used animal model of Interstitial lung disease (ILD) due to its: i) ability to reproduce many aspects of the disease, ii) good reproducibility, and iii) ease of induction. Overall, studies using the bleomycin model have identified many of the cellular and molecular mechanisms now recognized as being important in pathogenesis of IPF, as well as novel therapies for ILDs. The model is based on intratracheal administration of bleomycin in mice that results in alveolar epithelial damage, alveolar inflammation and fibrosis within a period of 21 days. Consequently, the model allows therapeutic testing of novel agents within a reasonably short period of time (Liu T eta al, Methods Mol Biol. 2017;1627:27-42).
# Test Article & Formulations Compound B (Synthetica A/S, Norway) was formulated for subcutaneous administration in a nano-emulsion containing 2 mg/ml Compound B, 2 mg/ml MCT oil (Lipoid), 2 mg/ml Polysorbate 80 (Fluka) and sodium citrate buffer 10 mM (pH 7). The final solution was sterilized by filtration and saturated with Argon 5.0 AGA prior to aliquoting in 10 ml tubes stored at −20° C. till further use. A separate Polysorbate 80- and sodium citrate buffer-based vehicle solution without Compound B and MCT oil was also prepared, sterilized, aliquoted and stored, serving as the subcutaneous vehicle control used in the UUO animal study. Nintedanib (approved and commercialized for IPF under the brand names Ofev/Vargatef) was used as a positive control. The compound was purchased from Chemexpress Co., Ltd. (China) and suspended in 1% methylcellulose.
# Six-week-old female C57BL/6J mice were obtained from Japan SLC, Inc. (Japan). Animals were kept in an animal room facility at a temperature of 23±2° C., humidity of 45±10%, under a 12-hour light and dark cycle (light from 8:00 to 20:00). A high pressure of 20±4 Pa was kept in the experimental room to prevent contamination. The animals were housed in TPX cages (CLEA Japan; maximum of 6 mice per cage) and fed with a sterilized normal diet (CE-2; CLEA Japan, Japan) provided ad libitum, being placed in a metal lid on the top of the cage. Sterilized Paper-Clean (Japan SLC) was used for bedding and was replaced once a week. Pure water was provided ad libitum from a water bottle equipped with a rubber stopper and a sipper tube. […]
# The viability, clinical signs and behavior were monitored every day. Body weight was recorded daily after the day of starting the BLM administration (Day 0). […]
# To quantify lung hydroxyproline content, frozen whole left lung samples were processed by an acid hydrolysis method as follows. […]
smiles,measurement,setting,value
COC(=O)c1ccc2c(c1)NC(=O)/C2=C(\Nc1ccc(N(C)C(=O)CN2CCN(C)CC2)cc1)c1ccccc1 [Nintedanib],Body weight changes at sacrifice,"100 mg/kg per os daily Day 7-20, Day 21, % of baseline Day 0, mean ± SD",103 ± 5%
same,Lung Hydroxyproline,"100 mg/kg per os daily Day 7-20, Day 21, mean ± SD",50.6 ± 14.5 μg/ml left lung
same,Ashcroft score,"Masson's Trichrome, 100 mg/kg per os daily Day 7-20, mean ± SD",1.6 ± 1.0
same,mice found dead before reaching Day 21,"per treatment group of 12, treatment Day 7-20",three out of 12
